Test [1] deals with thoracic aortic rings of normotensive Wistar rats. The experiment in a line: Vasorelaxation in thoracic aortic rings of normotensive Wistar rats pre-contracted with phenylephrine. The arrangement: species or system rat. As to conditions: aortic rings of Wistar and SHR rats (FIGS. 2A and 2B). The procedure:
Three- to four-mm rings of the descending thoracic aorta, free from adipose and connective tissue, were maintained in a gasified solution (95% 02 and 5% CO2) of Krebs-Henseleit, at 37° C. under 1.0 g tension, 1 hour for stabilization. The presence of functional endothelium was assessed by the ability of acetylcholine [ACh] (10 μmol/L) to induce more than 70% relaxation of vessels pre-contracted with phenylephrine (Phe) ([…]). The mechanical activity, recorded isometrically by a force transducer, was fed into a recorder-amplifier and a computer equipped with an analog-digital converter board, using CVMS data acquisition/recording software.
The vessels from normotensive Wistar rats and spontaneously hypertensive rats (SHR) were pre-contracted in the same voltage level (approximately 1.0 g tension) at the submaximal concentration of phenylephrine ([…]). Arg0-Ang-(1-7) and Ang-(1-7) were added in increasing cumulative concentrations as the response to phenylephrine was stabilized. Results are presented as mean±SEM. One-way analysis of variance (ANOVA) with Newman-Keuls post test of multiple comparisons was used to compare the concentration response curves obtained in the aortic rings. The vasodilatation effect of arg0-Ang-(1-7) and Ang-(1-7) was expressed as the percentage of decrease in peak concentration induced by phenylephrine. […]

For test [2], the target named is T1, rat receptor Mas (Rattus norvegicus, UniProt P12526).
T1 construct: expressed in transfected cells
T1 sequence (P12526 1-324): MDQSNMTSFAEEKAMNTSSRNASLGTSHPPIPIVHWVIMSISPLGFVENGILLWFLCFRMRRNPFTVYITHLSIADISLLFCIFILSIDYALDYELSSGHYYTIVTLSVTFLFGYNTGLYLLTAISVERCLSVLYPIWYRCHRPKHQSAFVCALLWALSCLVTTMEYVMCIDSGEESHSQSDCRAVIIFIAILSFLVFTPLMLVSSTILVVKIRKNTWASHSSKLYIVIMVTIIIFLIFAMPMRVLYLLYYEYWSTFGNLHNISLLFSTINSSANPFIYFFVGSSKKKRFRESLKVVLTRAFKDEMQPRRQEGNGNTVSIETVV
The test can be described thus: Nitric oxide production in CHO cells transfected with the Mas receptor (DAF-FM fluorescence). In kind it is cell-based. As to conditions: 10^−7 mol/L, 60 minutes. Here is the method:
Chinese hamster ovary cells (CHO) were stably transfected with the cDNA of the rat receptor Mas driven by a cytomegalovirus promoter and selected using neomycin. Nitric oxide production was monitored using the indicator NO 4-amino-5-methylamino-2′,7′-difluorofluorescent diacetate.
Confluent CHO cells transfected with the Mas receptor and cultured in 6-well plates were preincubated in 1.5 ml of serum free medium (DMEM) containing DAF-FM (least 5 uM) and supplemented with 0.2% BSA, 0.005% bacitracin, […] phenylmethylsulfonyl fluoride and […] 1, 10-phenanthroline at 37° C. in a humidified incubator in an atmosphere with 5% CO2. After 30 minutes, cells were washed and incubated with arg0-Ang-(1-7) and Ang-(1-7) at 10^−7 mol/L for 60 minutes. Subsequently, the cells were washed twice and the slides were mounted for confocal microscopy for evaluation.
Relative fluorescence measurements were made using a Zeiss LSM 510 laser scanning META confocal microscope excited at 488 nm with an argon-ion laser (objective lens immersion oil, 63×).
Results are presented as mean±SEM. One-way analysis of variance with Bonferroni post-test for multiple comparisons was used to compare the concentration-response curve in CHO cells transfected with the receptor Mas. All statistical analyses were considered significant when p<0.05.

The test system of test [3] is mesenteric artery rings of SHR. The experiment in a line: Vasorelaxation in mesenteric artery rings of SHR. The note with it: expressed as percentage of decrease of phenylephrine contraction. On the set-up: species or system rat. The procedure: Rings (2.0 mm) of mesenteric artery (2nd and/or 3rd branches) in spontaneously hypertensive rats (SHR), free from adipose and connective tissue, were maintained in a gasified solution (95% 02 and 5% CO2) of Krebs-Hanseleit to 37° C. After a 15 minute stabilization period, the artery was stretched, gradually, to a resting tension considered optimal with respect to its inner diameter. In each arterial segment, the voltage/diameter was calculated by the internal circumference which corresponds to a transmural pressure of 100 mmHg for a relaxed vessel in situ (IC100) using software specific for standardization resistance arteries. For the experiments, the arteries were maintained with an internal circumference, IC1, calculated using the formula IC1=0.90×IC100, in which the development of strength is maximum, as previously described by Mulvany and Halpern (1977). The effective luminal diameter was determined according to the I1=IC1/π equation. The diameter of the vessels used ranged from 200 to 300 μm.
The arteries were stimulated with a high concentration of potassium chloride (KCl 120 mmol/1), in order to assess their functional integrity. […]
The presence of functional endothelium was assessed by the ability of acetylcholine [ACh] […] The mechanical activity was recorded isometrically using a myograph, and this was connected to a system for data acquisition and a computer. […]

As for Asp-Arg-Val-Tyr-Ile-His-Pro [Ang-(1-7)], in test [1], the “endothelium dependence of the vasorelaxant effect” value is reported as “endothelium-dependent”. Moreover, the nitric oxide production result in test [2] is “stimulated nitric oxide production”. The Emax of vasorelaxation in test [3] came to 28%.

Values taken from patent US20160122387A1, “Angiotensin Peptide and Pharmaceutical Compositions for Disease Treatment” (UNIVERSIDADE FEDERAL DE MINAS GERAIS - UFMG, priority 2012, published 2016).
